Reference: patent publication US10080807B2 (LIPOMEDIX PHARMACEUTICALS LTD., priority 2014, dated 2018)

Key:
[1] = system: C26 (colon carcinoma) mouse tumor model; experiment: Anti-tumor effect in colon carcinoma tumor model (Example 6); assay type: in vivo; conditions: C26 ip in BALB/c mice; gemcitabine 100 mg/kg ip or paclitaxel 15 mg/kg ip days 5, 8, 12, 15, alone or with prodrug 30 mg/kg iv; 45 days
Source text: C26 (colon carcinoma) mouse tumor model was used by injecting BALB/c F intraperitoneally with 1 million tumor cells.

[2] = system: subcutaneous 4T1 breast mouse tumor model; conditions: day 5 iv; mitomycin C 6 mg/kg; prodrug 40 mg/kg; combination prodrug 30 mg/kg + liposome-entrapped doxorubicin 8 mg/kg; median tumor size
Source text: A subcutaneous 4T1 breast mouse tumor model was selected, and established by inoculating tumor cells subcutaneously into BALB/c f mice. The day of sc injection with tumor cells was defined as study day zero.

[3] = system: N87 human gastric tumor model; conditions: N87 in footpad of nude mice; mitomycin C 5 mg/kg iv or prodrug 35 mg/kg iv days 6, 13; paclitaxel 15 mg/kg ip days 6, 10, 13, 17; mice with unacceptable toxicity removed
Protocol: An N87 human gastric tumor model was selected, and established by inoculating N87 tumor cells into the footpad of nude mice via subcutaneous (sc) injection. The day of sc injection with tumor cells was defined as study day zero.
The tumor size of the animals in each treatment group was measured.

[4] = system: human A375 melanoma subcutaneous tumor model; conditions: prodrug 25 mg/kg iv days 11, 18; paclitaxel 15 mg/kg ip days 11, 14, 18, 21; alone or combined
Protocol: A human A375 melanoma subcutaneous tumor model was selected, and established by inoculating tumor cells into nude mice via subcutaneous (sc) injection. The day of sc injection with tumor cells was defined as study day zero.
The tumor size of the animals (n=6) in each treatment group was measured, and the median tumor size (in mm) is shown in FIG. 6 as a function of days post tumor inoculation.

[5] = system: N87 human gastric tumor model; experiment: Anti-tumor effect in gastric tumor model (Example 7); assay type: in vivo
Source text: An N87 human gastric tumor model was selected, and established by inoculating 10^6 N87 tumor cells into the footpad of nude mice via subcutaneous (sc) injection. The day of sc injection with tumor cells was defined as study day zero.

SMILES | survival (in words) [1] | tumor growth (in words) [2] | tumor size (in words) [3] | tumor growth (in words) [4] | animals tumor free at observation day 50 ([5]; N87 in footpad of nude mice, prodrug 25 mg/kg iv days 5, 12, paclitaxel 15 mg/kg ip days 5, 8, 12, 15) | reduction in tumor volume ([5]; individual tumor volumes measured to 48 days post inoculation (FIGS. 5C-5H))
Nc1ccn([C@@H]2O[C@H](CO)[C@@H](O)C2(F)F)c(=O)n1 [gemcitabine, 2′-deoxy-2′,2′-difluoro-cytidine] | fared poorly, with nearly all animals failing to survive the study period | – | – | – | – | –
CO[C@@]12[C@H](COC(N)=O)C3=C(C(=O)C(C)=C(N)C3=O)N1C[C@@H]1N[C@@H]12 [mitomycin C] | – | continued growth in tumor size | continuous increase in tumor size | – | – | –
CC(=O)O[C@H]1C(=O)[C@@]2(C)[C@H]([C@H](OC(=O)c3ccccc3)[C@]3(O)C[C@H](OC(=O)[C@H](O)[C@@H](NC(=O)c4ccccc4)c4ccccc4)C(C)=C1C3(C)C)[C@]1(OC(C)=O)CO[C@@H]1C[C@@H]2O [paclitaxel] | fared poorly, with nearly all animals failing to survive the study period | – | continuous increase in tumor size | either a shorter plateau period of attenuated tumor growth or an increase in tumor growth sooner than animals treated with the combination therapy | two of eight animals | Reduction in tumor volume was not observed
